15 compounds from PubChem BioAssay AID328 (DTP/NCI, 2004) can be followed below.

Where “and” joins values, the source holds several entries; their conditions need not be identical. Equal values may be shown once. Toxic doses and inconclusive results are not listed.

The assay relates to BDF1 mice, P388 leukemia ip, median survival T/C. The assay is described as follows: NCI In Vivo Anticancer Drug Screen. Data for tumor model P388 Leukemia (intraperitoneal) in B6D2F1 (BDF1) mice. The conditions noted are these: endpoint: median survival time, higher = longer survival. A digest of the protocol: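 Compound-treated tumour-bearing mice were compared with vehicle-treated controls. Survival was recorded, and the value is the treated-group measurement divided by the control-group measurement (T/C).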

Setting [1] is: dose: 50.0 mg/kg/injection, schedule: Q01DX009 (ip), vehicle: Klucel (hydroxypropylcellulose) (HPC).
Where [2] appears, read: dose: 100.0 mg/kg/injection, schedule: Q01DX009 (ip), vehicle: Klucel (hydroxypropylcellulose) (HPC).
Where [3] appears, read: dose: 200.0 mg/kg/injection, schedule: Q01DX009 (ip), vehicle: Klucel (hydroxypropylcellulose) (HPC).
The mark [4] stands for this setting: dose: 100.0 mg/kg/injection, schedule: Q01DX009 (ip), vehicle: saline with Tween-80.
Setting [5] is: dose: 200.0 mg/kg/injection, schedule: Q01DX009 (ip), vehicle: saline with Tween-80.
The mark [6] stands for this setting: dose: 25.0 mg/kg/injection, schedule: Q04DX003 (ip), vehicle: saline with Tween-80.
[7] abbreviates: dose: 50.0 mg/kg/injection, schedule: Q04DX003 (ip), vehicle: saline with Tween-80.
The mark [8] stands for this setting: dose: 100.0 mg/kg/injection, schedule: Q04DX003 (ip), vehicle: saline with Tween-80.

On to `COc1cc2c(cc1Oc1c(Oc3c(O)c(OC)cc4c3C(CC(C)C)N(C)CC4)c(OC)cc3c1C(CC(C)C)N(C)CC3)C(CC(C)C)N(C)CC2` (stereo not given), for which the T/C is, setting by setting: (dose: 12.5 mg/kg/injection, schedule: Q01DX010 (ip), vehicle: saline) 95 % of control; (dose: 25.0 mg/kg/injection, schedule: Q01DX010 (ip), vehicle: saline) 90 % of control; (dose: 50.0 mg/kg/injection, schedule: Q01DX010 (ip), vehicle: saline) 95 % of control.
As for `SCc1ccccn1`, the T/C runs as follows: (dose: 62.5 mg/kg/injection, schedule: Q01DX010 (ip), vehicle: carboxymethylcellulose (CMC)) 110 % of control; (dose: 125.0 mg/kg/injection, schedule: Q01DX010 (ip), vehicle: carboxymethylcellulose (CMC)) 110 % of control; (dose: 250.0 mg/kg/injection, schedule: Q01DX010 (ip), vehicle: carboxymethylcellulose (CMC)) 120 % of control.
Turning to `C(=Nc1ccc2c(c1)Cc1ccccc1-2)c1ccccc1`, the T/C is, setting by setting: under setting [1], 90 % of control; under setting [2], 109 % of control; under setting [3], 100 % of control.
For the compound `COc1cc(C=Nc2cccc(F)c2)ccc1N(CCCl)CCCl`, the T/C reads like this: (dose: 1.25 mg/kg/injection, schedule: Q01DX009 (ip), vehicle: other) 180 % of control; (dose: 2.5 mg/kg/injection, schedule: Q01DX009 (ip), vehicle: other) 195 % of control; (dose: 3.13 mg/kg/injection, schedule: Q01DX009 (ip), vehicle: other) 168 % of control; (dose: 5.0 mg/kg/injection, schedule: Q01DX009 (ip), vehicle: other) 280 % of control; (dose: 6.25 mg/kg/injection, schedule: Q01DX009 (ip), vehicle: other) 181 % of control; (dose: 12.5 mg/kg/injection, schedule: Q01DX009 (ip), vehicle: other) 95 % of control. In addition, the T/C was 95 % of control (dose: 25.0 mg/kg/injection, schedule: Q04DX003 (ip), vehicle: saline sonified); 100 % of control (dose: 50.0 mg/kg/injection, schedule: Q04DX003 (ip), vehicle: saline sonified); 195 % of control (dose: 100.0 mg/kg/injection, schedule: Q04DX003 (ip), vehicle: saline sonified).
For `NC(C(=O)O)C(O)c1ccc2c(c1)OCO2` (stereo not given), the T/C is 95 % of control under setting [4]; 105 % of control under setting [5]; 95 % of control (dose: 400.0 mg/kg/injection, schedule: Q01DX009 (ip), vehicle: saline with Tween-80).
With `O=C(O)C1C(C(=O)O)C2(Cl)C(Cl)=C(Cl)C1(Cl)C2(Cl)Cl.[Cu+2]` (stereo not given), the T/C is 100 % of control (dose: 12.5 mg/kg/injection, schedule: Q01DX009 (ip), vehicle: saline sonified) and 110 % of control (dose: 25.0 mg/kg/injection, schedule: Q01DX009 (ip), vehicle: saline sonified).
In the case of `O=c1oc2ccccc2c(O)c1C(C/C(=N/O)c1ccccc1)c1ccccc1` (stereo not given), the T/C runs as follows: (dose: 6.25 mg/kg/injection, schedule: Q01DX009 (ip), vehicle: saline with Tween-80) 99 % of control; (dose: 6.25 mg/kg/injection, schedule: Q04DX003 (ip), vehicle: saline with Tween-80) 100 % of control and 101 % of control; (dose: 12.5 mg/kg/injection, schedule: Q01DX009 (ip), vehicle: saline with Tween-80) 94 % of control; (dose: 12.5 mg/kg/injection, schedule: Q04DX003 (ip), vehicle: saline with Tween-80) 92 % of control and 107 % of control; (dose: 25.0 mg/kg/injection, schedule: Q01DX009 (ip), vehicle: saline with Tween-80) 93 % of control; under setting [6], 105 % of control and 108 % of control. For the same compound, the T/C by setting is: under setting [7], 95 % of control and 110 % of control; under setting [8], 102 % of control.
Consider `COc1ccc(C(=O)C(O)c2ccccc2)cc1` (stereo not given), for which the T/C is 100 % of control (dose: 100.0 mg/kg/injection, schedule: Q04DX003 (ip), vehicle: other) and 100 % of control (dose: 200.0 mg/kg/injection, schedule: Q04DX003 (ip), vehicle: other).
`CC1C2CCCC1(OC(=O)c1cc([N+](=O)[O-])cc([N+](=O)[O-])c1)C2` (stereo not given): the T/C runs as follows: (dose: 100.0 mg/kg/injection, schedule: Q04DX002 (ip), vehicle: saline with Tween-80) 101 % of control; (dose: 200.0 mg/kg/injection, schedule: Q04DX002 (ip), vehicle: saline with Tween-80) 94 % of control; (dose: 400.0 mg/kg/injection, schedule: Q04DX002 (ip), vehicle: saline with Tween-80) 95 % of control.
As for `COc1cc2oc(-c3ccc(O)cc3O)c(CC=C(C)C)c(=O)c2c(O)c1/C=C/C(C)C`, the T/C is, setting by setting: (dose: 4.1 mg/kg/injection, schedule: Q01DX009 (ip), vehicle: Klucel (hydroxypropylcellulose) (HPC)) 115 % of control; (dose: 6.25 mg/kg/injection, schedule: Q01DX009 (ip), vehicle: Klucel (hydroxypropylcellulose) (HPC)) 106 % of control; (dose: 9.3 mg/kg/injection, schedule: Q01DX009 (ip), vehicle: Klucel (hydroxypropylcellulose) (HPC)) 110 % of control; (dose: 12.5 mg/kg/injection, schedule: Q01DX009 (ip), vehicle: Klucel (hydroxypropylcellulose) (HPC)) 116 % of control; (dose: 25.0 mg/kg/injection, schedule: Q01DX009 (ip), vehicle: Klucel (hydroxypropylcellulose) (HPC)) 98 % of control; under setting [1], 91 % of control. For the same compound, under setting [2], the T/C is 94 % of control.
`O=C1CC(N2C(=O)c3ccccc3C2=O)C(=O)N1` (stereo not given): the T/C under setting [6] is 101 % of control; the T/C under setting [7] is 103 % of control; the T/C under setting [8] was 103 % of control; the T/C (dose: 200.0 mg/kg/injection, schedule: Q04DX003 (ip), vehicle: saline with Tween-80) is 99 % of control.
With `c1csc(NC(Nc2nccs2)C2CCCCC2)n1`, the T/C (dose: 50.0 mg/kg/injection, schedule: Q01DX009 (ip), vehicle: saline with Tween-80) was 101 % of control; the T/C under setting [4] was 96 % of control; the T/C under setting [5] was 96 % of control.
For `C1CCC2C[N-]CCC2C1.C1CCC2C[N-]CCC2C1.C1CCC2C[N-]CCC2C1.C1CCC2C[N-]CCC2C1.[Cl][Rh][Cl]` (stereo not given), the T/C by setting is: (dose: 0.13 mg/kg/injection, schedule: Q01DX009 (ip), vehicle: saline) 95 % of control; (dose: 0.25 mg/kg/injection, schedule: Q01DX009 (ip), vehicle: saline) 104 % of control; (dose: 0.39 mg/kg/injection, schedule: Q01DX009 (ip), vehicle: saline with Tween-80) 115 % of control; (dose: 0.5 mg/kg/injection, schedule: Q01DX009 (ip), vehicle: saline) 119 % of control; (dose: 0.78 mg/kg/injection, schedule: Q01DX009 (ip), vehicle: saline with Tween-80) 115 % of control; (dose: 0.88 mg/kg/injection, schedule: Q01DX009 (ip), vehicle: saline) 153 % of control. Further, the T/C was 174 % of control (dose: 1.33 mg/kg/injection, schedule: Q01DX009 (ip), vehicle: saline); 150 % of control (dose: 1.56 mg/kg/injection, schedule: Q01DX009 (ip), vehicle: saline with Tween-80); 153 % of control (dose: 2.0 mg/kg/injection, schedule: Q01DX009 (ip), vehicle: saline); 159 % of control (dose: 2.66 mg/kg/injection, schedule: Q01DX009 (ip), vehicle: saline); 185 % of control (dose: 3.12 mg/kg/injection, schedule: Q01DX009 (ip), vehicle: saline with Tween-80); 168 % of control and 170 % of control (dose: 4.0 mg/kg/injection, schedule: Q01DX009 (ip), vehicle: saline). The T/C (dose: 6.0 mg/kg/injection, schedule: Q01DX009 (ip), vehicle: saline) was 100 % of control.
As for `CC(O)CN(CCN(CC(C)O)CC(C)O)CC(C)O.[Cl-].[Co+2]` (stereo not given), under “dose: 100.0 mg/kg/injection, schedule: Q01DX009 (ip), vehicle: saline”, the T/C is 110 % of control.
As for `O=C(NCCO)c1cc2ccccc2cc1O`, the T/C under setting [2] is 90 % of control; the T/C (dose: 100.0 mg/kg/injection, schedule: Q04DX003 (ip), vehicle: Klucel (hydroxypropylcellulose) (HPC)) was 104 % of control; the T/C under setting [3] is 100 % of control; the T/C (dose: 200.0 mg/kg/injection, schedule: Q04DX003 (ip), vehicle: Klucel (hydroxypropylcellulose) (HPC)) is 100 % of control; the T/C (dose: 400.0 mg/kg/injection, schedule: Q01DX009 (ip), vehicle: Klucel (hydroxypropylcellulose) (HPC)) was 100 % of control; the T/C (dose: 400.0 mg/kg/injection, schedule: Q04DX003 (ip), vehicle: Klucel (hydroxypropylcellulose) (HPC)) was 100 % of control.
